# Source: US20230113037A1 (Bayer Aktiengesellschaft, priority 2019, published 2023)
# Several values for one entry are separate records, joined by “and”; a condition that tells them apart may be missing. Equal entries are not always repeated. Where two headings read alike, the source gives them in different places.
# Columns and labels:
# [1] = target: T1, AHR (Homo sapiens, UniProt P35869); assay: In vitro assay 1: antagonism in human cell line (AHR transactivation, firefly luciferase reporter, kynurenic acid prestimulated); format: cell-based; details: AHR Antagonism Human IC50 [M]
# T1 construct: U87 MG glioblastoma cells (ATCC #HTB-14) endogenously expressing AHR; endogenous in cells; host or cells: U87 MG glioblastoma cells (ATCC #HTB-14)
# T1 sequence (P35869 11-848): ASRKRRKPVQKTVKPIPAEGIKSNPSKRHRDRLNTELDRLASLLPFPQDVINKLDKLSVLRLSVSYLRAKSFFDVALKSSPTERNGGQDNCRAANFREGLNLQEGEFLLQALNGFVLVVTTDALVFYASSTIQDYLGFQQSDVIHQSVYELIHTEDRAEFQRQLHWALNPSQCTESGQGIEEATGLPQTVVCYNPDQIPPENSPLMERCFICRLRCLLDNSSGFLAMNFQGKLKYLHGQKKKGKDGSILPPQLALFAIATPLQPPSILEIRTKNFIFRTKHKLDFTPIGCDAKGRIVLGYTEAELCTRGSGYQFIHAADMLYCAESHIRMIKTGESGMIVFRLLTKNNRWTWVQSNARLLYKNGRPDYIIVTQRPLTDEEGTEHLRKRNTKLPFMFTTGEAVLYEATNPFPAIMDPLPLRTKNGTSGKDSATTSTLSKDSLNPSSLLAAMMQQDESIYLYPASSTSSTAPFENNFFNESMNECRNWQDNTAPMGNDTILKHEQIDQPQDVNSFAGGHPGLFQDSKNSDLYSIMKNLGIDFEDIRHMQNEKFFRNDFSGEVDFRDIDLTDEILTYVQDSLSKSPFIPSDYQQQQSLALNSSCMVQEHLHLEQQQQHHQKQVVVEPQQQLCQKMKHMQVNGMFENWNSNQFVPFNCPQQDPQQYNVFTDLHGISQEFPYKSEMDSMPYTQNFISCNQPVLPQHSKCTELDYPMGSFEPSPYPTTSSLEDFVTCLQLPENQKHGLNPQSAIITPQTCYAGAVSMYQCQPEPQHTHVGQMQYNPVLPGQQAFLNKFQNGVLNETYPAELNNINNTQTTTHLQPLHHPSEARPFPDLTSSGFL
# Procedure, shortened: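 Antagonism measured as loss of kynurenic acid-driven firefly luciferase from DRE reporter in stably transfected U87 MG cells; constitutive Renilla signal monitors cytotoxicity. Positive/negative control normalization, staurosporine 5 μM with 150 μM kynurenic acid as inhibition control; replicates given as mean or median.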
# [2] = target: T2, AHR (Mus musculus, UniProt P30561); assay: In vitro assay 3: antagonism in mouse cell line (AHR transactivation, firefly luciferase reporter, kynurenic acid prestimulated); format: cell-based; details: 200 μM kynurenic acid, 20 hours, read-out: AHR Antagonism Mouse IC50
# T2 sequence (P30561 1-848 P471L/N533S/M589L): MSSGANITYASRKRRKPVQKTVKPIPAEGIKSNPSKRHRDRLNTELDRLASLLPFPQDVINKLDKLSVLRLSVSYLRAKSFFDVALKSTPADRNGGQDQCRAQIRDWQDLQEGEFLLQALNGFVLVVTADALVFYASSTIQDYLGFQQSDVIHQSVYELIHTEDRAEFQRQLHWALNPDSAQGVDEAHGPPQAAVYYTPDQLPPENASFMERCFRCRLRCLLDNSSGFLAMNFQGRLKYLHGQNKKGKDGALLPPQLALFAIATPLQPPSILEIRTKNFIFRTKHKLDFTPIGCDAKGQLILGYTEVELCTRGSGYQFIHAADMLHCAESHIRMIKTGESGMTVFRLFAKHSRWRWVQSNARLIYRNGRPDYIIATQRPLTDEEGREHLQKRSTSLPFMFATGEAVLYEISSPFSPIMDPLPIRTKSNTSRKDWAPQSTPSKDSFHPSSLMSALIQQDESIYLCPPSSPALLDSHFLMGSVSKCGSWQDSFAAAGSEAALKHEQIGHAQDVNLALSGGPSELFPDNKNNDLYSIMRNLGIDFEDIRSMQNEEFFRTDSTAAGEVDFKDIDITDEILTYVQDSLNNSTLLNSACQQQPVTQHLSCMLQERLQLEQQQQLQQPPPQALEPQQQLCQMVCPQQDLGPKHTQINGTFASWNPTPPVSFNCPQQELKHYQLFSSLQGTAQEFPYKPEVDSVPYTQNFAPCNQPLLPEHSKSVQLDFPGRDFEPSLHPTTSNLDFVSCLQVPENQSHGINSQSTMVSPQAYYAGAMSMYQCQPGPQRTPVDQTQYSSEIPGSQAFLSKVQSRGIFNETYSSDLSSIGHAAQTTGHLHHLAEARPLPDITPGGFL
# Procedure, shortened: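 Antagonism read as reduced firefly luciferase signal (SteadyGlo) from a stably transfected AHR/DRE reporter in a mouse line prestimulated with kynurenic acid. Data normalized to controls, the full-inhibition control being cells without kynurenic acid; multiple determinations given as average or median values.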
# [3] = Hepa 1c1c7 cells, firefly luciferase reporter
Structure (SMILES),IC50 ([1]; firefly luciferase reporter) [M],"IC50 [2, 3] [µM]",IC50 [1],IC50 ([2]; mouse Hepa 1c1c7 cells)
Cc1sccc1-c1nc2c3ccccc3nc(N[C@H]3CCCCNC3=O)n2n1 [Example 347],,,1.17e-07 M,0.00428 µM
"Cn1cc(-c2nc3c4cccc(Cl)c4nc(N[C@@H]4CNCCNC4=O)n3n2)cn1 [Example 253, (6R)-6-{[7-Chloro-2-(1-methyl-1H-pyrazol-4-yl)[1,2,4]triazolo[1,5-c]quinazolin-5-yl]amino}-1,4-diazepan-5-one]",,,2.71e-08 M,0.0368 µM
"COc1cccc(-c2nc3c4ccccc4nc(N[C@H](C)C(=O)NC4CCC4)n3n2)c1 [Example 109, N-cyclobutyl-N^2-[2-(3-methoxyphenyl)[1,2,4]triazolo[1,5-c]quinazolin-5-yl]-D-alaninamide]",,,6.94e-09 M,0.00415 µM
"CC(C)[C@@H](Nc1nc2c(Br)cccc2c2nc(-c3cnn(C)c3)nn12)C(N)=O [Example 578, N^2-[7-bromo-2-(1-methyl-1H-pyrazol-4-yl)[1,2,4]triazolo[1,5-c]quinazolin-5-yl]-D-valinamide]",,,1.25e-08 M,0.00291 µM
"COc1cccc(-c2nc3c4ccccc4nc(N[C@H](C)C(=O)NCCO)n3n2)c1 [Example 111, N-(2-hydroxyethyl)-N^2-[2-(3-methoxyphenyl)[1,2,4]triazolo[1,5-c]quinazolin-5-yl]-D-alaninamide]",,,1.42e-08 M,0.0158 µM
"O=C1NCCCC[C@H]1Nc1nc2c(Cl)cccc2c2nc(-c3ccc(F)cc3)nn12 [Example 554, (3R)-3-{[7-chloro-2-(4-fluorophenyl)[1,2,4]triazolo[1,5-c]quinazolin-5-yl]amino}azepan-2-one]",,,7.68e-09 M,0.00245 µM
"O=C1NCCCC[C@@H]1Nc1nc2ccccc2c2nc(-c3cc(F)ccc3OC(F)(F)F)nn12 [Example 493, (3S)-3-({2-[5-fluoro-2-(trifluoromethoxy)phenyl][1,2,4]triazolo[1,5-c]quinazolin-5-yl}amino)azepan-2-one]",,,> 2e-05 M,0.0369 µM
"CC[C@@H](Nc1nc2ccccc2c2nc(-c3cc(C(F)(F)F)ccn3)nn12)C(N)=O [Example 367, (2R)-2-({2-[4-(trifluoromethyl)pyridin-2-yl][1,2,4]triazolo[1,5-c]quinazolin-5-yl}amino)butanamide]",,,1.91e-07 M,0.0105 µM
"Cn1cc(-c2nc3c4cc(Cl)ccc4nc(N[C@@H]4CCCCNC4=O)n3n2)cn1 [Example 236, (3R)-3-{[9-chloro-2-(1-methyl-1H-pyrazol-4-yl)[1,2,4]triazolo[1,5-c]quinazolin-5-yl]amino}azepan-2-one]",,,2.62e-08 M,0.0212 µM
"Cc1ccccc1-c1nc2c3ccccc3nc(NC3CCNC3=O)n2n1 (single isomer, unassigned) [Example 50, 3-{[2-(2-methylphenyl)[1,2,4]triazolo[1,5-c]quinazolin-5-yl]amino}pyrrolidin-2-one]",,,1.06e-08 M,0.0204 µM
"C[C@@H](Nc1nc2ccccc2c2nc(-c3cccc(OC(F)(F)F)c3)nn12)C(=O)NCCN(C)C [Example 325, N-[2-(dimethylamino)ethyl]-N^2-{2-[3-(trifluoromethoxy)phenyl][1,2,4]triazolo[1,5-c]quinazolin-5-yl}-D-alaninamide]",,,1.49e-05 M and 1.56e-05 M and > 2e-05 M,0.677 µM
"O=C1NCCCC[C@H]1Nc1nc2ccccc2c2nc(-c3cnn(C4CCNCC4)c3)nn12 [Example 646, (3R)-3-({2-[1-(piperidin-4-yl)-1H-pyrazol-4-yl][1,2,4]triazolo[1,5-c]quinazolin-5-yl}amino)azepan-2-one]",,,2.89e-06 M,> 20 µM and 11.8 µM
"O=C1NCCCC[C@H]1Nc1nc2ccccc2c2nc(-c3cnn(CC4CCC4)c3)nn12 [Example 597, (3R)-3-({2-[1-(cyclobutylmethyl)-1H-pyrazol-4-yl][1,2,4]triazolo[1,5-c]quinazolin-5-yl}amino)azepan-2-one]",,,1.16e-08 M,0.00757 µM
"O=C1NCCCC[C@H]1Nc1nc2ccccc2c2nc(-c3cccc(OC(F)(F)F)c3)nn12 [Example 309, (3R)-3-({2-[3-(Trifluoromethoxy)phenyl][1,2,4]triazolo[1,5-c]quinazolin-5-yl}amino)azepan-2-one]",,,2.47e-08 M,0.00197 µM

# Further lines, results first:
IC50 ([1]; firefly luciferase reporter) [M],"IC50 [2, 3] [µM]",IC50 [1],IC50 ([2]; mouse Hepa 1c1c7 cells),Structure (SMILES)
6.5e-08,0.0344,,,"CC(C)[C@@H](Nc1nc2c(Br)cccc2c2nc(-c3cnn(C)c3)nn12)C(=O)NCCN1CCN(C)CC1 [Example 927, N^2-[7-bromo-2-(1-methyl-1H-pyrazol-4-yl)[1,2,4]triazolo[1,5-c]quinazolin-5-yl]-N-[2-(4-methylpiperazin-1-yl)ethyl]-D-valinamide]"
5.91e-10,0.000324,,,"O=C1NCCNC[C@H]1Nc1nc2c(C(F)(F)F)cccc2c2nc(-c3ccc(Cl)cc3)nn12 [Example 947, (6R)-6-{[2-(4-chlorophenyl)-7-(trifluoromethyl)[1,2,4]triazolo[1,5-c]quinazolin-5-yl]amino}-1,4-diazepan-5-one]"
4.4e-09,0.0147,,,"CCn1cc(-c2nc3c4cccc(C(F)(F)F)c4nc(N[C@H]4CNCCNC4=O)n3n2)c(C)n1 [Example 949, (6S)-6-{[2-(1-ethyl-3-methyl-1H-pyrazol-4-yl)-7-(trifluoromethyl)[1,2,4]triazolo[1,5-c]quinazolin-5-yl]amino}-1,4-diazepan-5-one]"
8.18e-08,0.189,,,"Cn1cc(-c2nc3c4cccc(Br)c4nc(N[C@H]4CNCCNC4=O)n3n2)cn1 [Example 983, (6S)-6-{[7-bromo-2-(1-methyl-1H-pyrazol-4-yl)[1,2,4]triazolo[1,5-c]quinazolin-5-yl]amino}-1,4-diazepan-5-one]"
,,1.29e-07 M,0.0797 µM,"C[C@@H](Nc1nc2c(Br)cccc2c2nc(-c3cnn(C)c3)nn12)C(=O)NCCN1CCOCC1 [Example 782, N^2-[7-bromo-2-(1-methyl-1H-pyrazol-4-yl)[1,2,4]triazolo[1,5-c]quinazolin-5-yl]-N-[2-(morpholin-4-yl)ethyl]-D-alaninamide]"
3.61e-08,0.0675,,,"COc1ccc(-c2nc3c4cccc(S(=O)(=O)C(C)C)c4nc(N[C@@H]4CNCCNC4=O)n3n2)cc1 [Example 941, (6R)-6-{[2-(4-methoxyphenyl)-7-(propan-2-sulfonyl)[1,2,4]triazolo[1,5-c]quinazolin-5-yl]amino}-1,4-diazepan-5-one]"
5.39e-08,0.11,,,"C[C@@H](Nc1nc2c(C(F)(F)F)cccc2c2nc(-c3cnn(C)c3)nn12)C(=O)N1CCC(N(C)C)C1 (mixture of isomers) [Example 876, (2R)-1-[(3R/S)-3-(dimethylamino)pyrrolidin-1-yl]-2-{[2-(1-methyl-1H-pyrazol-4-yl)-7-(trifluoromethyl)[1,2,4]triazolo[1,5-c]quinazolin-5-yl]amino}propan-1-one]"
3.22e-09,0.00544,,,"Cc1nn(C)cc1-c1nc2c3cccc(Cl)c3nc(N[C@@H]3CNCCNC3=O)n2n1 [Example 951, (6R)-6-{[7-chloro-2-(1,3-dimethyl-1H-pyrazol-4-yl)[1,2,4]triazolo[1,5-c]quinazolin-5-yl]amino}-1,4-diazepan-5-one]"
